These results are taken from patent US4975374A (priority 1987, dated 1990).

The target in assay [1] is T1, pea leaf glutamine synthetase (Pisum sativum, UniProt P08281).
T1 sequence (P08281 50-430): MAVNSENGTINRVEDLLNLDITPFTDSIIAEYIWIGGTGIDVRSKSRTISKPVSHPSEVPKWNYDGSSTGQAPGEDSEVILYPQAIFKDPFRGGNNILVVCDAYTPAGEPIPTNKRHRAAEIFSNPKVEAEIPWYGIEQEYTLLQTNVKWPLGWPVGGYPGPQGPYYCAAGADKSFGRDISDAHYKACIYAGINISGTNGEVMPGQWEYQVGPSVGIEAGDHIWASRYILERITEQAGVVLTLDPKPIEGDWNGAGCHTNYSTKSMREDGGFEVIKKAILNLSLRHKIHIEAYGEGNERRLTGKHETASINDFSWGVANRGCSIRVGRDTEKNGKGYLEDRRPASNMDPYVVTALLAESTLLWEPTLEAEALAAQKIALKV
Conditions: mixed competitive inhibitor; cited from earlier work.

The subject of the next assay is E. coli transformants. Kind of assay: Fragment exchange: transformants selected for PPT resistance. The format is cell-based. From the text: (§1) Tables I and II show the results obtained.
Assay [2] deals with T2, PPT resistant mutant GS (ser 245) (pCGS3-SER245) (Medicago sativa, UniProt P04078, G245S).
T2 construct: made in house; host or cells: E. coli FDB213 (glnA deletion), clarified lysate
The assay can be described thus: Inhibition of GS activity by PPT, lysate of E. coli FDB213 containing pCGS3-Ser245. The format is biochemical, alfalfa. Conditions: read-out: Relative GS Enzyme Activity. How it is done:
(§2) The cells were collected by centrifugation at 5,000 r.p.m. (5° C.) for 5 min, resuspended in 1.0 ml 10mM Tris-HCl, pH 7.5, 1 mM EDTA, 5 mM beta-mercaptoethanol, and lysed by sonication.

The next assay has as its system E. coli containing pCGS3. Kind of assay: Replating on M9 with PPT, plasmid pCGS3. The format is cell-based.
Text: as §1

A further assay has as its target T3, wild-type GS (pCGS3) (Medicago sativa, UniProt P04078).
T3 construct: made in house; host or cells: E. coli FDB213 (glnA deletion), clarified lysate
T3 sequence (P04078 1-356): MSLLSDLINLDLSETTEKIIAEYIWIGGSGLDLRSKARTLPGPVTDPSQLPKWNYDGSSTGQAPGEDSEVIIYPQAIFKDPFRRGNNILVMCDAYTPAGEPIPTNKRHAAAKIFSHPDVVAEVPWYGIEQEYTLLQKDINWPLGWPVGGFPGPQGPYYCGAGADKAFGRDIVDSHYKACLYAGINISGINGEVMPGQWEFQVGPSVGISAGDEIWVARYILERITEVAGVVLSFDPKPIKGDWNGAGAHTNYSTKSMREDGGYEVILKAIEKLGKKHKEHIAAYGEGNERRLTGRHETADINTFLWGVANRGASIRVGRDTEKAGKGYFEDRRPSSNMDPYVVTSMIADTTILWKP
Kind of assay: Inhibition of GS activity by PPT, lysate of E. coli FDB213 containing pCGS3. The assay is classed as biochemical, alfalfa. Conditions: read-out: Relative GS Enzyme Activity. Here is the method: as §2

Assay [3] concerns the target T4, PPT resistant mutant GS (lys 332) (pCGS3-LYS332) (Medicago sativa, UniProt P04078, R332K).
T4 construct: made in house; host or cells: E. coli FDB213 (glnA deletion), clarified lysate
The assay can be described thus: biochemical. Also noted: species or system alfalfa. Conditions: read-out: Relative GS Enzyme Activity. How it is done:
as §2

The structures appear in SMILES notation. pKi: −log10 of the molar value. Some results are limits rather than exact numbers.

T4 sequence (P04078 whole entry R332K): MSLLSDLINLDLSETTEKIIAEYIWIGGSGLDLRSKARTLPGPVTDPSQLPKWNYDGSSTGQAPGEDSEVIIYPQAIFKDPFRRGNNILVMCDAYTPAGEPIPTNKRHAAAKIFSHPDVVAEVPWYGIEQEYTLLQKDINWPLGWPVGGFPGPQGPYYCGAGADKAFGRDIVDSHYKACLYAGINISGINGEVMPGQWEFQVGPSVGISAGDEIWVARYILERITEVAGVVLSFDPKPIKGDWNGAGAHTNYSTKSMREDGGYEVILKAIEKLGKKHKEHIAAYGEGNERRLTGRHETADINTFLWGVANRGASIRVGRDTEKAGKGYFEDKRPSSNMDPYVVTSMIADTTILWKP
T2 sequence (P04078 whole entry G245S): as the sequence (P04078 whole entry R332K) above, with G245S, K332R counted along it

Turning to `CS(=N)(=O)CCC(N)C(=O)O` (centres unmarked) [MSO, methione sulfoximine], in assay [1], the negative-log Ki (pKi) is 3.80.
In the case of `CP(=O)(O)CC[C@H](N)C(=O)O` [L-PPT, L-phosphinothricin], the “NUMBER OF COLONIES M9 AMP + 3 mM L-PPT” value in the assay on E. coli transformants (9: CCC pCGS3) is 100; in the assay on E. coli transformants (10: CCC pCGS3 PPT^r), greater than 1000; in the assay with E. coli transformants (ligation 2: insert PPT^r SalI-NcoI, vector SalI-NcoI), 8; in the assay with E. coli transformants (ligation 4: insert PPT^r NcoI-EcoRI, vector NcoI-EcoRI) it was 6; with E. coli transformants (ligation 6: insert PPT^r EcoRI-HindIII, vector EcoRI-HindIII), 300; in the assay on E. coli transformants (ligation 8: insert PPT^r HindIII-BamHI, vector HindIII-BamHI) it was 2.
Regarding `CP(=O)(O)CC[C@H](N)C(=O)O` [PPT, phosphinothricin], the figures for the remaining activity at 4 µM (in assay [2]; at wild-type GS (pCGS3) (4 uM PPT); in assay [3]) were 103%, 102% and 103%, respectively. Besides, the remaining activity at 25 µM in assay [2] was 103%; on wild-type GS (pCGS3) (25 uM PPT) it was 95.7%; in assay [3], 103%. The remaining activity at 62.5 µM in assay [2] turned out to be 97.3%; at wild-type GS (pCGS3) (62.5 uM PPT), 84%; in assay [3] it was 103%. In addition, the remaining activity at 125 µM was found to be 91.4% in assay [2], 68% on wild-type GS (pCGS3) (125 uM PPT) and 100% in assay [3]. Also, the remaining activity at 250 µM in assay [2] was determined as 80.6%; on wild-type GS (pCGS3) (250 uM PPT) it was 42.7%; in assay [3] it was 98.5%. Besides, the remaining activity at 2000 µM in assay [2] was determined as 30.7%; on wild-type GS (pCGS3) (2 mM PPT) it was 15%; in assay [3], 78.2%. The remaining activity at 20000 µM came out at 5.3% in assay [2], 4.3% on wild-type GS (pCGS3) (20 mM PPT) and 23.8% in assay [3]. The growth on replating in the assay on E. coli containing pCGS3 (M9/6 mM PPT, from LB) is listed as 0; with E. coli containing pCGS3 (M9/6 mM PPT, from M9) it was 0; in the assay on E. coli containing pCGS3 (M9/12 mM PPT, from LB), 0; with E. coli containing pCGS3 (M9/12 mM PPT, from M9), 0.

What is called pKi is the Ki on a negative log10 scale, so that one unit is a factor of ten.
